According to US7339063B2, “Quinolyl organic germanium ester and the synthesis method thereof” (Changchun Institute of Applied Chemistry Chinese Academy of …, priority 2004, dated 2008):
Read-outs that look alike come from different tables or passages of the source. Marks after values point to notes of the source that are not given here.

System: PC-3M prostate cancer cell line
Settings: for inhibition fraction at the given concentration: PC-3M proliferation
Excerpt: Cytotoxicity of Quinolyl Germanyl Propionate Sesquioxide (a) and Quinolyl Germanyl-α-methyl Propionate Sesquioxide (b) Against PC-3M Prostate Cancer Cell Line
The only difference of these two compounds is with or without the methyl group in the linking chain of the Germanium and quinoline.

| Substance | inhibition fraction at the given concentration (10 μM, 24 h) | inhibition fraction at the given concentration (10 μM, 48 h) | inhibition fraction at the given concentration (10 μM, 72 h) | inhibition fraction at the given concentration (30 μM, 24 h) | inhibition fraction at the given concentration (30 μM, 48 h) | inhibition fraction at the given concentration (30 μM, 72 h) | inhibition fraction at the given concentration (60 μM, 24 h) | inhibition fraction at the given concentration (60 μM, 48 h) | inhibition fraction at the given concentration (60 μM, 72 h) | IC50 relative to that of Compound (b) (PC-3M, MTT method) | IC50 (PC-3M, measured by MTT method) |
| --- | --- | --- | --- | --- | --- | --- | --- | --- | --- | --- | --- |
| Quinolyl Germanyl Propionate Sesquioxide [Compound (a)] | 0.34** | 0.69 | 0.62 | 0.48 | 0.74 | 0.74 | 0.50 | 0.74 | 0.78 | three fold lower | 10 µM |
| Quinolyl Germanyl-α-methyl Propionate Sesquioxide [Compound (b)] | 0.09 | 0.32 | 0.58 | 0.30 | 0.45 | 0.69 | 0.20 | 0.43 | 0.67 |  |  |
